Results on 22 compounds are retold here after PMC11396514, “Synthesis and Biological Evaluation of Novel Piperidine-3-Carboxamide Derivatives as Anti-Osteoporosis Agents Targeting Cathepsin K” (Molecules, 2024).

Each structure is given as a SMILES string.

One series addresses T1, Recombinant human Cat K (Homo sapiens, UniProt P43235).
T1 sequence (P43235 115-329): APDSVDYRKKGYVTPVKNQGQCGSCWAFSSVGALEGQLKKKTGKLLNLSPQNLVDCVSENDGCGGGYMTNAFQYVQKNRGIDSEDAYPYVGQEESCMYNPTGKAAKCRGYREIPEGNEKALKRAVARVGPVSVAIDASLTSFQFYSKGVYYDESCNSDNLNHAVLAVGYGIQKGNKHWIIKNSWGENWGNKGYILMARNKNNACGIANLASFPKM
Kind of series: In vitro enzymatic assay of Cat K inhibition (Z-Phe-Arg-AMC fluorescence). In kind it is biochemical. The conditions noted are these: pH 6.0, substrate Z-Phe-Arg-AMC, read-out: Cat K IC50 (µM) ± SD. On the procedure:
Compounds were tested at eight concentrations (100–0.001 µM). Recombinant human Cat K (5.5 ng/mL) in reaction buffer (50 µL) containing sodium acetate (50 mM), EDTA (2.5 mM), and DTT (1 mM) was added to a 96-well plate containing the test compounds at pH 6.0. The plate was incubated at 37 °C for 15 min, and the fluorescence (F1) was measured at 355 nm excitation and 460 nm emission using a microplate reader (Wallac 1420 Victor2, Norwalk, CA, USA). Subsequently, Z-Phe-Arg-AMC (20 µL, 10 µM) was added, and the plate was incubated at 37 °C for 1 h. Fluorescence (F2) was measured again at 355 nm excitation and 460 nm emission. The inhibition rate was calculated using the formula: inhibition (%) = [control (F2 − F1) − sample (F2–F1)]/[control (F2 − F1) − blank (F2 − F1)] × 100%. IC50 values were calculated using the SPSS 17.0 software.

In series [1] the test system is RANKL-induced RAW264.7 cells. The series can be described thus: In vitro anti-bone resorption assay: CTX-I released into culture medium (ELISA), cells on bovine femur slices. The series is classed as cell-based. The conditions noted are these: compound 1 µM, 5 days; for CTX-I concentration compared to the model group (in words): vs untreated model group. The source says: (§1) Type I collagen, the predominant structural protein in bone, constitutes approximately 90% of the bone matrix protein [22]. During bone renewal, type I collagen is degraded, releasing short peptide fragments such as the C-terminal peptide of type I collagen (CTX-I) into the bloodstream. The concentration of CTX-I in the patient’s blood serves as a crucial biomarker for evaluating the degree of osteoporosis. In vitro, bone resorption can be assessed by measuring the concentration of CTX-I using a model in which osteoclasts are cultured on bone slices. In this experiment, the in vitro anti-bone resorption activities of the test compounds were evaluated in RANKL-induced RAW264.7 cells. This evaluation was based on the concentration of CTX-I released into the cell culture medium due to bone degradation, as well as the area of bone resorption pits formed on bone slices.
(§2) RAW264.7 cells, obtained from the cell bank of the Chinese Academy of Medical Sciences, were seeded into 96-well plates at a density of 1 × 10^5 cells per well with bovine femur slices. To induce cell differentiation, 50 ng mL^−1 of RANKL was added to the RAW264.7 cells. The cells were cultured for 5 days at 37 °C under 5% CO2 with the test compounds at a concentration of 1 µM. The culture supernatant was collected to measure the CTX-I concentration using ELISA. The bone slices were fixed with 2.5% glutaraldehyde for 7 min, then washed 3 times with 0.25 mol/L ammonium hydroxide, dehydrated using a series of ethanol solutions (40%, 75%, 80%, 95%, and anhydrous ethanol), and dried naturally. After staining with 1% toluidine blue solution at room temperature for 3–4 min, the bone slices were rinsed with distilled water and analyzed using an optical microscope. Bone resorption areas were calculated using image analysis software (iBright CL1500, Redmond, WA, USA).

The test system of series [2] is RANKL-induced RAW264.7 cells. Kind of series: In vitro anti-bone resorption assay: area of bone resorption pits on bone slices (toluidine blue). In kind it is cell-based. The conditions noted are these: compound 1 µM, 5 days, compared with MIV-711 / model group.
Text: as §1, §2

Consider `COc1ccc(S(=O)(=O)N2CCC[C@@H](C(C)=O)C2)cc1` [Compound F-12], for which the IC50 at Recombinant human Cat K is 13.5 ± 2.16 µM.

Take `COc1ccc(S(=O)(=O)N2CCC[C@@H](C(=O)NCc3ccccc3C)C2)cc1` [Compound H-1, (R)-1-((4-methoxyphenyl)sulfonyl)-N-(2-methylbenzyl)piperidine-3-carboxamide]: the melting point was in the range of 170.4 to 171.4 °C. In addition, at Recombinant human Cat K, the 50% inhibitory concentration (IC50) amounted to 3.52 ± 0.44 µM.

As to `COc1ccc(S(=O)(=O)N2CCC[C@@H](C(=O)NCc3cccc(C)c3)C2)cc1` [Compound H-2, (R)-1-((4-methoxyphenyl)sulfonyl)-N-(3-methylbenzyl)piperidine-3-carboxamide], the melting point was 189.8 to 190.1 °C. Moreover, on Recombinant human Cat K, the IC50 worked out at 4.76 ± 0.71 µM.

Turning to `COc1ccc(S(=O)(=O)N2CCC[C@@H](C(=O)NCc3ccc(C)cc3)C2)cc1` [Compound H-3, (R)-1-((4-methoxyphenyl)sulfonyl)-N-(4-methylbenzyl)piperidine-3-carboxamide], the melting point lay in the range of 182.3 to 182.7 °C. Also, on Recombinant human Cat K, the IC50 was determined as 4.39 ± 0.65 µM.

In turn, `COc1ccc(S(=O)(=O)N2CCC[C@@H](C(=O)NCc3ccccc3OC)C2)cc1` [Compound H-4, (R)-N-(2-methoxybenzyl)-1-((4-methoxyphenyl)sulfonyl)piperidine-3-carboxamide] displayed a melting point of 143.7 to 144.2 °C. The IC50 at Recombinant human Cat K is 2.48 ± 0.37 µM.

`COc1ccc(S(=O)(=O)N2CCC[C@@H](C(=O)NCc3cccc(OC)c3)C2)cc1` [Compound H-5, (R)-N-(3-methoxybenzyl)-1-((4-methoxyphenyl)sulfonyl)piperidine-3-carboxamide]: the melting point fell in the range of 130.2 to 131.2 °C. Moreover, the concentration for half-maximal inhibition (IC50) on Recombinant human Cat K amounted to 2.93 ± 0.4 µM.

`COc1ccc(CNC(=O)[C@@H]2CCCN(S(=O)(=O)c3ccc(OC)cc3)C2)cc1` [Compound H-6, (R)-N-(4-methoxybenzyl)-1-((4-methoxyphenyl)sulfonyl)piperidine-3-carboxamide] came in with a melting point of 139.4 to 140.9 °C. In addition, on Recombinant human Cat K, the concentration for half-maximal inhibition (IC50) amounted to 3.64 ± 0.39 µM.

Turning to `COc1ccc(S(=O)(=O)N2CCC[C@@H](C(=O)NCc3ccccc3Cl)C2)cc1` [Compound H-7, (R)-N-(2-chlorobenzyl)-1-((4-methoxyphenyl)sulfonyl)piperidine-3-carboxamide], the melting point is 192.3 to 193.6 °C. In addition, the IC50 at Recombinant human Cat K was 1.06 ± 0.18 µM.

The compound `COc1ccc(S(=O)(=O)N2CCC[C@@H](C(=O)NCc3cccc(Cl)c3)C2)cc1` [Compound H-8, (R)-N-(3-chlorobenzyl)-1-((4-methoxyphenyl)sulfonyl)piperidine-3-carboxamide] registered a melting point of 146.1 to 148.7 °C. The IC50 at Recombinant human Cat K was 0.45 ± 0.11 µM. Further, the “CTX-I concentration compared to the model group (in words)” value in series [1] was “reduced CTX-I concentration”.

The compound `COc1ccc(S(=O)(=O)N2CCC[C@@H](C(=O)NCc3ccccc3Br)C2)cc1` [Compound H-10, (R)-N-(2-bromobenzyl)-1-((4-methoxyphenyl)sulfonyl)piperidine-3-carboxamide] yielded a melting point of 153.7 to 154.5 °C. The IC50 at Recombinant human Cat K amounted to 2.18 ± 0.39 µM.

As for `COc1ccc(S(=O)(=O)N2CCC[C@@H](C(=O)NCc3cccc(Br)c3)C2)cc1` [Compound H-11, (R)-N-(3-bromobenzyl)-1-((4-methoxyphenyl)sulfonyl)piperidine-3-carboxamide], the melting point fell in the range of 124.7 to 126.5 °C. The IC50 at Recombinant human Cat K came to 0.66 ± 0.2 µM. In addition, the “CTX-I concentration compared to the model group (in words)” value in series [1] is recorded as “reduced CTX-I concentration”.

In turn, `COc1ccc(S(=O)(=O)N2CCC[C@@H](C(=O)NCc3ccc(Br)cc3)C2)cc1` [Compound H-12, (R)-N-(4-bromobenzyl)-1-((4-methoxyphenyl)sulfonyl)piperidine-3-carboxamide] gave a melting point of 148.1 to 149.3 °C. Also, the half-inhibitory concentration (IC50) at Recombinant human Cat K was determined as 0.22 ± 0.05 µM. The “Anti-bone resorption activity by area of bone resorption pits (in words)” value in series [2] is “comparable to that of MIV-711”. Moreover, in series [1], the “CTX-I concentration compared to the model group (in words)” value is listed as “reduced CTX-I concentration”.

Consider `COc1ccc(CNC(=O)[C@@H]2CCCN(S(=O)(=O)c3ccccc3Br)C2)cc1` [Compound H-13, (R)-1-((2-bromophenyl)sulfonyl)-N-(4-methoxybenzyl)piperidine-3-carboxamide], for which the melting point was 189.5 to 190.5 °C. Besides, the half-maximal inhibitory concentration (IC50) at Recombinant human Cat K came out at 0.74 ± 0.12 µM. In series [1], the “CTX-I concentration compared to the model group (in words)” value is recorded as “reduced CTX-I concentration”.

`COc1ccc(CNC(=O)[C@@H]2CCCN(S(=O)(=O)c3cccc(Br)c3)C2)cc1` [Compound H-14, (R)-1-((3-bromophenyl)sulfonyl)-N-(4-methoxybenzyl)piperidine-3-carboxamide] returned a melting point of 203.5 to 204.2 °C. The IC50 on Recombinant human Cat K is 0.91 ± 0.15 µM.

`COc1ccc(CNC(=O)[C@@H]2CCCN(S(=O)(=O)c3ccc(Br)cc3)C2)cc1` [Compound H-15, (R)-1-((4-bromophenyl)sulfonyl)-N-(4-methoxybenzyl)piperidine-3-carboxamide] yielded a melting point of 152.4 to 154.4 °C. For the same compound, the IC50 on Recombinant human Cat K stood at 0.85 ± 0.19 µM.

Turning to `COc1ccc(CNC(=O)[C@@H]2CCCN(S(=O)(=O)c3ccccc3Cl)C2)cc1` [Compound H-16, (R)-1-((2-chlorophenyl)sulfonyl)-N-(4-methoxybenzyl)piperidine-3-carboxamide], the melting point was in the range of 162.3 to 164.5 °C. Further, the IC50 at Recombinant human Cat K came out at 2.03 ± 0.43 µM. Further, in series [1], the “CTX-I concentration compared to the model group (in words)” value was “reduced CTX-I concentration”.

With `COc1ccc(CNC(=O)[C@@H]2CCCN(S(=O)(=O)c3cccc(Cl)c3)C2)cc1` [Compound H-17, (R)-1-((3-chlorophenyl)sulfonyl)-N-(4-methoxybenzyl)piperidine-3-carboxamide], the melting point was in the range of 117.1 to 119.9 °C. At Recombinant human Cat K, the concentration for half-maximal inhibition (IC50) was 0.47 ± 0.12 µM. In addition, in series [2], the “Anti-bone resorption activity by area of bone resorption pits (in words)” value is “comparable to that of MIV-711”. Also, the “CTX-I concentration compared to the model group (in words)” value in series [1] was “reduced CTX-I concentration”.

The compound `COc1ccc(CNC(=O)[C@@H]2CCCN(S(=O)(=O)c3ccc(Cl)cc3)C2)cc1` [Compound H-18, (R)-1-((4-chlorophenyl)sulfonyl)-N-(4-methoxybenzyl)piperidine-3-carboxamide] returned a melting point of 147 to 148.7 °C. The half-inhibitory concentration (IC50) at Recombinant human Cat K came out at 0.78 ± 0.3 µM.

For `COc1ccc(CNC(=O)[C@@H]2CCCN(S(=O)(=O)c3ccccc3C)C2)cc1` [Compound H-19, (R)-N-(4-methoxybenzyl)-1-(o-tolylsulfonyl)piperidine-3-carboxamide], the melting point lay within 108.3 to 109.4 °C. On Recombinant human Cat K, the IC50 was 5.33 ± 0.94 µM.

In the case of `COc1ccc(CNC(=O)[C@@H]2CCCN(S(=O)(=O)c3cccc(C)c3)C2)cc1` [Compound H-20, (R)-N-(4-methoxybenzyl)-1-(m-tolylsulfonyl)piperidine-3-carboxamide], the melting point lay in the range of 152.6 to 154.2 °C. At Recombinant human Cat K, the half-maximal inhibitory concentration (IC50) stood at 3.82 ± 0.91 µM.

Regarding `COc1ccc(CNC(=O)[C@@H]2CCCN(S(=O)(=O)c3ccc(C)cc3)C2)cc1` [Compound H-21, (R)-N-(4-methoxybenzyl)-1-tosylpiperidine-3-carboxamide], the melting point lay within 162.9 to 163.7 °C. Also, the IC50 on Recombinant human Cat K was found to be 3.65 ± 0.86 µM.

For `C#C[C@@H]1CN(C(=O)[C@H](CC(C)C)NC(=O)c2ccc(-c3nc(N4CCN(C)CC4)sc3F)cc2)[C@@H]2C(=O)CO[C@H]12` [MIV-711, reference compound], the IC50 on Recombinant human Cat K is 0.09 ± 0.02 µM. The “CTX-I concentration in the cell culture medium” value in series [1] (ELISA) amounted to 21.73 ± 3.18 nM.
